According to US20260373165A1, “PHARMACEUTICAL COMBINATIONS AND COMPOSITIONS, AND METHODS OF USE THEREOF” (SHENZHEN HIGHTIDE BIOPHARMACEUTICAL LTD., priority 2022, published 2026):

Key:
Assay type in all cases: in vivo, mouse (C57BL/6J male, 60% HFD DIO)
[1] = Example 2: body fat mass by MRI on day 23
Source text: (§1) After 5-6-week-old C57BL/6J male mice were acclimatized for 1 week, the weight of each mouse was weighed, and the mice were randomly divided into a control group and a model group by taking the weight as a main index, where 12 mice in the control group were fed with common feed (CD), and the mice in the remaining model group were fed with 60% high-fat feed (60% HFD) for 10-12 weeks to construct a DIO obesity model, with the average body weight being not less than 40 g. The mice fed with 60% HFD were grabbed and acclimatized with a solvent for 3 days, where the acclimatization with a solvent was performed by oral gavage of 0.5% CMC-Na, once daily.
(§2) The food intake, the body weight, the body fat ratio, and the insulin level of the mice were respectively measured, followed by fasting blood glucose level, and the mice were randomly grouped according to Table 12 by taking the body weight as an index, and the remaining ungrouped mice were euthanized. After grouping, each group of mice was administered according to Table 12, the day of administration was defined as DO, and the administration volume of each drug was determined based on the results obtained by the calculation of 5 μL/g× mouse body weight (g).
(§3) For the combined administration group, the administration sequence and the administration time were kept consistent at each administration. The mice were continuously fed with high-fat feed during the administration period until the administration was finished. During administration, 1 food intake was measured per week (difference in feed weights at an interval of 24 h was measured); each group of mice was weighed once daily; blood was collected from the tail tip on day 16 and day 30, respectively, so as to measure fasting blood glucose levels once (blood was collected after fasting from 9:00 am to 3:[…]); on day 24 of administration (D23), the body fat ratio and the lean mass of each group of mice were measured by MRI (the measurement period was kept consistent with that before grouping); after 25 days of administration intervention (day 24), each group of mice was fasted for 6 h and subjected to OGTT (0 min, 15 min, 30 min, 60 min, 90 min, 120 min) to detect their blood glucose levels; after 29 days of administration intervention (day 28), each group of mice was fasted for 6 h and subjected to OGTT (0 min, 15 min, 30 min, 60 min, 90 min, 120 min), and meanwhile subjected to blood sampling via submaxillary vein (0 min, 15 min, 30 min, about 30 μL of blood sampled each time), and then the blood plasma was separated for detecting the insulin level by ELISA, where the separated blood plasma was more than 10 μL; the next day (D30) at the end of administration was set as the test endpoint, and the mice were fasted for 6 h in the morning and subjected to fasting blood glucose level measurement; subsequently, the mice were euthanized with CO2, blood was collected from the heart of each mouse for analysis, and each group of mice was dissected; the liver and subcutaneous, epididymal and mesenteric fat was collected, photographed and weighed, respectively.
The body weight, the body fat mass and the body fat ratio of each animal in groups G1 to G8 were measured on day 23 and averaged for each group, and the results are shown in Table 15 below, and FIGS. 21 and 22.

[2] = Example 2: lean mass by MRI on day 23
Source text: as §1, §2, §3
The body weight, the lean mass and the lean ratio of each animal in groups G1 to G8 were measured on day 23 and averaged for each group, and the results are shown in Table 16 below, and FIGS. 23 and 24.

[3] = Example 2: body weight and body weight change rate, combined administration of HTD1801 and dapagliflozin or empagliflozin in DIO obesity model; conditions: for Body weight (mean) / Body weight change rate: HTD1801 250 mpk, dapagliflozin 10 mpk, empagliflozin 15 mpk p.o. QD, semaglutide 10 nmol/kg s.c. Q3D
Source text: as §1, §2, §3

[4] = mean, day 23, HTD1801 250 mpk, dapagliflozin 10 mpk, empagliflozin 15 mpk p.o. QD

Compound: CCOc1ccc(Cc2cc([C@@H]3O[C@H](CO)[C@@H](O)[C@H](O)[C@H]3O)ccc2Cl)cc1 [Dapagliflozin, dapagliflozin]
- increase of body fat relative to control group G2 ([1]; day 23): about 8.6%
- body fat mass and body fat ratio (in words) ([1]; day 23, relative to control group G2): increased
- Body weight ([1]; mean, day 23 (Table 15), HTD1801 250 mpk, dapagliflozin 10 mpk, empagliflozin 15 mpk p.o. QD): 43.8 g
- Body fat ratio [1, 4]: 48.8%
- Fat (body fat mass) [1, 4]: 21.4 g
- lean ratio (in words) ([2]; day 23, relative to model control group G2): slightly decreased
- Body weight ([2]; mean, day 23 (Table 16), HTD1801 250 mpk, dapagliflozin 10 mpk, empagliflozin 15 mpk p.o. QD): 43.8 g
- Lean (lean mass) [2, 4]: 4.3 g
- Lean ratio [2, 4]: 9.9%
- body weight decrease ([3]; dapagliflozin 10 mpk p.o. QD): 3.4%
- Body weight (mean) ([3]; day 0 (baseline)): 45.4 g
- Body weight change rate ([3]; day 0 (baseline)): 0.0%
- Body weight (mean) ([3]; day 1): 45.5 g
- Body weight change rate ([3]; day 1): 0.3%
- Body weight (mean) ([3]; day 2): 45.3 g
- Body weight change rate ([3]; day 2): −0.1%
- Body weight (mean) ([3]; day 3): 45.1 g
- Body weight change rate ([3]; day 3): −0.6%
- Body weight (mean) ([3]; day 4): 44.8 g
- Body weight change rate ([3]; day 4): −1.2%
- Body weight (mean) ([3]; day 5): 44.3 g
- Body weight change rate ([3]; day 5): −2.4%
- Body weight (mean) ([3]; day 6): 44.1 g
- Body weight change rate ([3]; day 6): −2.7%
- Body weight (mean) ([3]; day 7): 44.0 g
- Body weight change rate ([3]; day 7): −2.9%
- Body weight (mean) ([3]; day 8): 43.7 g
- Body weight change rate ([3]; day 8): −3.7%
- Body weight (mean) ([3]; day 9): 43.4 g
- Body weight change rate ([3]; day 9): −4.4%
- Body weight (mean) ([3]; day 10): 43.5 g
- Body weight change rate ([3]; day 10): −4.2%
- Body weight (mean) ([3]; day 11): 43.2 g
- Body weight change rate ([3]; day 11): −4.7%
- Body weight (mean) ([3]; day 12): 43.1 g
- Body weight change rate ([3]; day 12): −4.9%
- Body weight (mean) ([3]; day 13): 42.6 g
- Body weight change rate ([3]; day 13): −6.1%
- Body weight (mean) ([3]; day 14): 42.7 g
- Body weight change rate ([3]; day 14): −6.0%
- Body weight (mean) ([3]; day 15): 42.9 g
- Body weight change rate ([3]; day 15): −5.5%
- Body weight (mean) ([3]; day 16): 42.8 g
- Body weight change rate ([3]; day 16): −5.7%
- Body weight (mean) ([3]; day 17): 43.2 g
- Body weight change rate ([3]; day 17): −4.7%
- Body weight (mean) ([3]; day 18): 43.3 g
- Body weight change rate ([3]; day 18): −4.5%
- Body weight (mean) ([3]; day 19): 43.5 g
- Body weight change rate ([3]; day 19): −4.2%
- Body weight (mean) ([3]; day 20): 43.5 g
- Body weight change rate ([3]; day 20): −4.1%
- Body weight (mean) ([3]; day 21): 43.9 g
- Body weight change rate ([3]; day 21): −3.3%
- Body weight (mean) ([3]; day 22): 43.9 g
- Body weight change rate ([3]; day 22): −3.3%
- Body weight (mean) ([3]; day 23): 43.8 g
- Body weight change rate ([3]; day 23): −3.5%
- Body weight (mean) ([3]; day 24): 43.5 g
- Body weight change rate ([3]; day 24): −4.2%
- Body weight (mean) ([3]; day 25): 43.9 g
- Body weight change rate ([3]; day 25): −3.2%
- Body weight (mean) ([3]; day 26): 44.2 g
- Body weight change rate ([3]; day 26): −2.5%
- Body weight (mean) ([3]; day 27): 44.3 g
- Body weight change rate ([3]; day 27): −2.4%
- Body weight (mean) ([3]; day 28): 43.9 g
- Body weight change rate ([3]; day 28): −3.2%
- Body weight (mean) ([3]; day 29): 43.8 g
- Body weight change rate ([3]; day 29): −3.4%
